Laboratory results: patent US20100021392A1, “Vapor-phase application of spinosyn for the control of pest, and formulations and products utilizing the same” (priority 2006, published 2010)

What was measured:
[1] = Evaporation test of spinosad from impregnated paper mats on mat diffusers (HPLC); assay type: physicochemical; details: Example 1 mat, initial 80 mgs per mat; for Percentage of Spinosad Evaporated: 8 h
Protocol: Paper mats having dimensions of 35 mm (length)×21.5 mm (width)×2.5 mm (thickness) were then gradually impregnated with 0.84-1.70 grams of the above upper phase mixture (depending on its content in spinosad) so as to have approximately 80 mgs of pure spinosad per mat. The mats were left at a temperature of approximately 30° C. for 3 hours during which time most of the ethyl alcohol was evaporated. Next the mats were closed within foil comprising metallized polyethylene terepthalate PET 12 μm/adhesive/PET 35 μm. The mats were allowed to rest for 24 hours to allow for complete spread of the liquid material within the paper. Evaporation tests were then run as follows:
(§1) The foil was opened and a mat was removed. The mat was checked by HPLC to confirm its spinosad content. As was theoretically expected, 80 mgs of pure spinosad per mat were found. Four mats of this batch were then placed on common mat diffusers having a temperature ranging from 130° C. to 160° C. The amount of spinosad remaining on the mat was checked after each of 2, 4, and 8 hours of diffuser operation.
as §1, with “the content of spinosad.” for “its spinosad content.”, “11” for “80”, “mats” for “mats of this batch”, “of” for “of diffuser”
as §1, with “confirm the content of spinosad.” for “confirm its spinosad content.”, “expected, 10” for “expected, 80”, “mat was” for “mat were”, “mats” for “mats of this batch”, “of” for “of diffuser”

[2] = Evaporation of liquid formulation from bottle with ceramic wick on diffuser; assay type: physicochemical; details: equal to 1 gram of mixture, diffuser 125°-150° C.
Protocol: PET plastic bottles were then each filled with 24 grams of the above formulation. A plastic insert and ceramic wick were then placed in the opening of the bottle and the bottle was screwed onto a common diffuser. The diffuser was operated at a temperature ranging from 125°-150° C. […] The remainder of the mixture in the bottle was then analyzed by HPLC. […] The bottle was then plugged off and stored for 12 additional hours. The bottle was again screwed onto a common diffuser, and the diffuser was operated at a temperature of 125°-150° C.

fish = details: in vivo; cited from earlier work
birds = details: in vivo; cited from earlier work
mammals [3] = details: cited from earlier work
mammals [4] = details: in vivo; cited from earlier work
[5] = at 25° C.; cited from earlier work

Compound | Percentage of Spinosad Evaporated ([1]; diffuser temperature 130° C.) | Percentage of Spinosad Evaporated ([1]; diffuser temperature 140° C.) | Percentage of Spinosad Evaporated ([1]; diffuser temperature 160° C.) | Quantity of Spinosad Remained on mat after 8 h of operation ([1]; diffuser temperature 130° C.) | Quantity of Spinosad Remained on mat after 8 h of operation ([1]; diffuser temperature 140° C.) | Quantity of Spinosad Remained on mat after 8 h of operation ([1]; diffuser temperature 160° C.) | pure spinosad evaporated after 8 hours [2] | toxicity to fish (fish) | toxicity to birds (birds) | chronic toxicology findings (mammals [3]) | toxicity to mammals (mammals [4]) | vapor pressure [5]
Spinosad | 75% | 85% | 98% | 20 mgs | 12 mgs | 2 mgs | 20 mgs | only slightly toxic | relatively low | not carcinogenic, teratogenic, mutagenic, or neurotoxic | relatively low | 
CC[C@H]1CCC[C@H](O[C@H]2CC[C@H](N(C)C)[C@@H](C)O2)[C@@H](C)C(=O)C2=C[C@@H]3[C@@H](C=C[C@@H]4C[C@@H](O[C@@H]5O[C@@H](C)[C@H](OC)[C@@H](OC)[C@H]5OC)C[C@@H]34)[C@@H]2CC(=O)O1 [spinosyn A] |  |  |  |  |  |  |  |  |  |  |  | 2.4 ×10^−10 mmHg
